Measured values: article PMC4318710 (Bioorganic & medicinal chemistry letters, 2015)

Assays:
[1] = tested on: C57BL/6 mice; experiment: in vivo serum iron levels in mice after intraperitoneal peptide injection; conditions: 50-100 nmoles/mouse
[2] = stability on prolonged storage in DMSO; assay type: physicochemical; conditions: 10 mM solution in DMSO, room temperature, 30 days, LC/MS/MS

Structure (SMILES)	serum iron at 6 and 24 h time points [1]	stability in DMSO [2] [%]
CCCCCCCCCCCCCCCCNC(=O)CN(CC(N)=O)C(=O)CCCCCNC(=O)C[C@H](Cc1ccccc1)NC(=O)[C@H](CCCNC(=N)N)NC(=O)[C@H](CSC(=CP(=O)(OCC)OCC)P(=O)(OCC)OCC)NC(=O)[C@H](CCCNC(=N)N)NC(=O)C[C@@H]1CCCN1C(=O)[C@@H](NC(=O)[C@H](Cc1c[nH]cn1)NC(=O)[C@@H](NC(=O)CNCC(=O)O)[C@@H](C)O)C(c1ccccc1)c1ccccc1 [PR73SH]	decreased serum iron	99.5±0.5
CCCCCCCCCCCCCCCCNC(=O)CN(CC(N)=O)C(=O)CCCCCNC(=O)C[C@H](Cc1ccccc1)NC(=O)[C@H](CCCNC(=N)N)NC(=O)[C@H](CS)NC(=O)[C@H](CCCNC(=N)N)NC(=O)C[C@@H]1CCCN1C(=O)[C@@H](NC(=O)[C@H](Cc1c[nH]cn1)NC(=O)[C@@H](NC(=O)CNCC(=O)O)[C@@H](C)O)C(c1ccccc1)c1ccccc1 [PR73]	decreased serum iron	
